# Experimental data published in PubChem BioAssay (NCI).
#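 These data come from cells grown in 96-well plates and exposed to compound for 48 hours at five concentrations. Here, GI50 denotes the concentration required for 50% inhibition of growth. TGI: total growth inhibition.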
# Tests used:
# Assay in all cases: inhibition of tumour cell growth, NCI panel, 48 h
# [1] = tested on: 786-0 renal
# [2] = tested on: SR leukemia
# [3] = tested on: UO-31 renal
# [4] = tested on: COLO 205 colon
# [5] = tested on: PC-3 prostate
# [6] = tested on: SW-620 colon
# [7] = tested on: IGROV1 ovarian
# [8] = tested on: NCI-H23 lung
# [9] = tested on: HOP-92 NSCLC
# [10] = tested on: RXF 393 renal
# [11] = tested on: M14 melanoma
# [12] = tested on: UACC-62 melanoma
# [13] = tested on: NCI-H460 lung
# [14] = tested on: RPMI-8226 leukemia
# [15] = tested on: CCRF-CEM leukemia
# [16] = tested on: A549 NSCLC
# [17] = tested on: SK-OV-3 ovarian
# [18] = tested on: SNB-19 CNS
# [19] = tested on: KM12 colon
# [20] = tested on: HL-60(TB) leukemia
# [21] = tested on: MOLT-4 leukemia
# [22] = tested on: MDA-MB-231 breast
# [23] = tested on: LOX IMVI melanoma
# [24] = tested on: NCI-H522 lung
# [25] = tested on: BT-549 breast
# [26] = tested on: OVCAR-8 ovarian
# [27] = tested on: SK-MEL-28 melanoma
# [28] = tested on: OVCAR-3 ovarian
# [29] = tested on: HS 578T breast
# [30] = tested on: DU-145 prostate
# [31] = tested on: NCI/ADR-RES ovarian
# [32] = tested on: U251 CNS
# [33] = tested on: A498 renal
# [34] = tested on: EKVX NSCLC
# [35] = tested on: HT29 colon
# [36] = tested on: NCI-H226 lung
# [37] = tested on: MALME-3M melanoma
# [38] = tested on: CAKI-1 renal
# [39] = tested on: HCT-15 colon
# [40] = tested on: SK-MEL-2 melanoma
# [41] = tested on: OVCAR-4 ovarian
# [42] = tested on: K-562 leukemia
# [43] = tested on: SK-MEL-5 melanoma
# [44] = tested on: SNB-75 CNS
# [45] = tested on: HCC-2998 colon
# [46] = tested on: HOP-62 NSCLC
# [47] = tested on: MDA-MB-435
# [48] = tested on: UACC-257 melanoma
# [49] = tested on: SF-539 CNS
# [50] = tested on: SF-295 CNS
# [51] = tested on: SF-268 CNS
# [52] = tested on: SN12C renal
# [53] = tested on: T-47D breast
# [54] = tested on: MCF7 breast
# [55] = tested on: OVCAR-5 ovarian
# [56] = tested on: HCT-116 colon
# [57] = tested on: ACHN renal
# [58] = tested on: TK-10 renal
compound,measurement,setting,value
CCN(CC)c1ccc(C(=C2C=CC(=[N+](CC)Cc3cccc(S(=O)(=O)O)c3)C=C2)c2ccc(N(CC)Cc3cccc(S(=O)(=O)O)c3)cc2)cc1,GI50,[1],12.9 µM
same,TGI,[1],98.9 µM
same,TGI,[2],0.643 µM
same,GI50,[3],16.3 µM
same,TGI,[3],> 91.9 µM
same,GI50,[4],1.87 µM
same,TGI,[4],3.83 µM
same,GI50,[5],6.87 µM
same,TGI,[5],> 66.3 µM
same,GI50,[6],4.45 µM
same,TGI,[6],> 100 µM
same,GI50,[7],13.3 µM
same,TGI,[7],> 100 µM
same,GI50,[8],5.14 µM
same,TGI,[8],80.2 µM
same,GI50,[9],15.2 µM
same,TGI,[9],65.8 µM
same,GI50,[10],7.94 µM
same,TGI,[10],76.1 µM
same,GI50,[11],4.93 µM
same,TGI,[11],39.2 µM
same,GI50,[12],13 µM
same,TGI,[12],87 µM
same,GI50,[13],3.93 µM
same,TGI,[13],39.1 µM
same,GI50,[14],3.32 µM
same,TGI,[14],> 51.1 µM
same,GI50,[15],6.59 µM
same,TGI,[15],98.5 µM
same,GI50,[16],4.28 µM
same,TGI,[16],> 100 µM
same,GI50,[17],5.04 µM
same,TGI,[17],27.1 µM
same,GI50,[18],14.2 µM
same,TGI,[18],> 100 µM
same,GI50,[19],4.36 µM
same,TGI,[19],28.9 µM
same,GI50,[20],4.38 µM
same,TGI,[20],17.4 µM
same,GI50,[21],11.1 µM
same,TGI,[21],> 89.7 µM
same,GI50,[22],9.61 µM
same,TGI,[22],> 92.6 µM
same,GI50,[23],4.84 µM
same,TGI,[23],> 100 µM
same,GI50,[24],7.88 µM
same,TGI,[24],> 79.2 µM
same,GI50,[25],5.45 µM
same,TGI,[25],> 91.7 µM
same,GI50,[26],4.8 µM
same,TGI,[26],> 100 µM
same,GI50,[27],15.6 µM
same,TGI,[27],> 100 µM
same,GI50,[28],5.21 µM
same,TGI,[28],37.4 µM
same,GI50,[29],2.86 µM
same,TGI,[29],> 30.5 µM
same,GI50,[30],4.74 µM
same,TGI,[30],> 100 µM
same,GI50,[31],> 100 µM
same,TGI,[31],> 100 µM
same,GI50,[32],3.58 µM
same,TGI,[32],> 100 µM
same,GI50,[33],5.35 µM
same,TGI,[33],32.4 µM
same,GI50,[34],6.82 µM
same,TGI,[34],> 100 µM
same,GI50,[35],3.4 µM
same,TGI,[35],> 88.9 µM
same,GI50,[36],9.07 µM
same,TGI,[36],> 90.2 µM
same,GI50,[37],5.52 µM
same,TGI,[37],53.1 µM
same,GI50,[38],24 µM
same,TGI,[38],> 100 µM
same,GI50,[39],28.5 µM
same,TGI,[39],> 100 µM
same,GI50,[40],10.5 µM
same,TGI,[40],> 92.2 µM
same,GI50,[41],8.71 µM
same,TGI,[41],> 100 µM
same,GI50,[42],3.85 µM
same,TGI,[42],97.5 µM
same,GI50,[43],10.1 µM
same,TGI,[43],24.1 µM
same,GI50,[44],2.75 µM
same,TGI,[44],17.3 µM
same,GI50,[45],5.78 µM
same,TGI,[45],> 100 µM
same,GI50,[46],4.59 µM
same,TGI,[46],> 96.6 µM
same,GI50,[47],4.07 µM
same,TGI,[47],> 100 µM
same,GI50,[48],21 µM
same,TGI,[48],> 100 µM
same,GI50,[49],3.57 µM
same,TGI,[49],23.3 µM
same,GI50,[50],2.81 µM
same,TGI,[50],> 47 µM
same,GI50,[51],4.12 µM
same,TGI,[51],> 79.4 µM
same,GI50,[52],3.24 µM
same,TGI,[52],> 100 µM
same,GI50,[53],3.14 µM
same,TGI,[53],> 29.3 µM
same,GI50,[54],3.66 µM
same,TGI,[54],> 100 µM
same,GI50,[55],20.8 µM
same,TGI,[55],> 100 µM
same,GI50,[56],3.18 µM
same,TGI,[56],19.7 µM
same,GI50,[57],9.48 µM
same,TGI,[57],> 68.5 µM
same,GI50,[58],18.8 µM
same,TGI,[58],> 100 µM
